According to US20230149318A1, “COMBINATIONS OF NANOPARTICLE-ENCAPSULATED CARGO ENTITIES AND METHODS FOR MAKING AND USING SAME” (Nurevelation, LLC, priority 2021, published 2023):

What was measured:
[1] = dystonia and parkinsonism due to antipsychotics; cited from earlier work
[2] = NMR comparison of CBD before and after encapsulation into nanoparticles (stability); format: physicochemical; conditions: encapsulated CBD (bottom spectrum) relative to non-encapsulated CBD sample (top spectrum), FIG. 3
Description: In some aspects, the cannabinoid in the dispersion can have a purity of at least 90%. In a further aspect, the purity of the cannabinoid in the dispersion ranges from 90-100%. In a still further aspect, the purity of the cannabinoid in the dispersion ranges from 92-97%. In general, the inventors have discovered that the encapsulation process described herein can be improved with the use of a pure cannabinoid starting material (e.g., from 92-97% pure). Similarly, the nanoparticle encapsulated cannabinoid products can advantageously maintain the purity of the cannabinoid over extended periods of time. In some aspects, the purity of the cannabinoid starting material can be maintained once encapsulated for a period of twelve months or longer, e.g., 18 months or longer, or even 24 months or longer. The stable shelf life of the cannabinoid nanoparticles is an advantage over many existing methods for delivering cannabinoid products. In some aspects, the stability of the cannabinoid can be measured using NMR, e.g., by comparing a pre-encapsulated cannabinoid to a cannabinoid extracted from a nanoparticle prepared by a disclosed method.

| Compound | duration of benefits [1] [h] | time until benefits are seen [1] [h] | stability of CBD after encapsulation into nanoparticles (NMR spectra) [2] |
| --- | --- | --- | --- |
| CN1[C@@H]2CC[C@H]1C[C@@H](OC(c1ccccc1)c1ccccc1)C2 [Benztropine] | ≤ 10 | ≤ 2 |  |
| C=C(C)[C@@H]1CCC(C)=C[C@H]1c1c(O)cc(CCCCC)cc1O [CBD, cannabidiol] |  |  | remains intact |
